Test results as given in PMC10317891, “Fibroblast activation protein targeted radiotherapy induces an immunogenic tumor microenvironment and enhances the efficacy of PD-1 immune checkpoint inhibition” (European Journal of Nuclear Medicine and Molecular Imaging, 2023).
Several values for one entry are separate records, joined by “and”; a condition that tells them apart may be missing. Identical values can stand only once. Like-named read-outs stand apart in the source and are kept apart here. Numbered stars: 1 amine (or outer) side, 2 acyl side, 3 side chain; on linkers, the order of the positions; unused ones are H or OH. Bridge positions count the residues as written; N and C are the ends. Peptide text beside a SMILES is read from it. * marks the point of attachment. X1 = O=C(O)CN1CCN(CC(=O)O)CCN(CC(=O)N2CCN(Cc3cc(C[*:1])cc(C[*:2])c3)CC2)CCN(CC(=O)O)CC1; Hexanoyl = CCCCCC(=O)*

Legend:
[1] = In vivo biodistribution by SPECT/CT imaging; parameters: species or system C57BL/6 mice; details: female, C57BL/6, mouse, total radioactivity; for tissue uptake at 3 h / tissue uptake at 24 h / tissue uptake at 48 h / tissue uptake at 72 h: mean ± SD, n = 6, SD
Description: All animal experiments were carried out under licenses approved by the respective authorities and in compliance with guidelines on animal welfare. […] Animals were anesthetized (isoflurane 3% in 100% O2) and eye lubricants were applied before each scan. Study was performed at Minerva Imaging ApS (Denmark).
Imaging and image analysis were performed as described. During the scan, mice were kept under isoflurane anesthesia, and body temperature was maintained under warm air. The following acquisition parameters were used for the respective imaging modality.
For quantification, VivoQuant (InviCRO) was used to draw regions of interest (ROIs) in relevant tissues, with a ROI drawn over the left ventricle of the heart to serve as blood pool surrogate. Percentage injected dose per gram of tissue (%ID/g) was calculated from the tissue-associated radioactivity determined in the ROI, the volume of the ROI, and the decay-corrected dose entered during preprocessing of the images in VivoQuant.

MCA205-mFAP tumors = test: Tumor mass in pharmacodynamic study; type: in vivo, C57BL/6 mice; details: day 13 pi; n = 8 per group; vehicle 1433 mg
Description: (§1) Female C57BL/6 mice were subcutaneously implanted with 1 × 10^6 MCA205-mFAP cells (n = 12 per group). […] Treatment began when the MTV was 94 mm^3 (mean body weight 20.4 g). […] Treatment began when MTV was 162 mm^3 (mean body weight 20.8 g) and tumors were collected at days 8 and 13 pi for analysis.

[2] = test system: immune gene expression in MCA205-mFAP tumors; test: Tumor RNA expression analysis (nCounter PanCancer Immune Profiling panel); type: in vivo, C57BL/6 mice
Text: Total RNA was isolated from tumors using the PureLink RNA Mini kit (Thermo Fisher Scientific) following the manufacturer’s protocol. The nCounter PanCancer Immune Profiling (mouse) panel (NanoString Technologies) was used to measure the expression in the RNA samples. Following hybridization, transcripts were quantitated and analyzed using the nCounter Digital Analyzer and nCounter Advanced Analysis Software v4.0 (NanoString Technologies). Data were normalized for assay efficiency by multiplying each count by a positive normalization factor obtained for each sample. For differential expression analysis, the Benjamini-Yekutieli statistical analysis, which calculates false discovery rate, was employed to generate an adjusted p-value.

[3] = test system: MCA205-mFAP syngeneic tumor model; test: Tumor in vivo efficacy study
Description: Female C57BL/6 mice were subcutaneously implanted with 1 × 10^6 MCA205-mFAP cells (n = 12 per group). […] Treatment began when the MTV was 94 mm^3 (mean body weight 20.4 g).
Calculation of tumor growth inhibition (TGI). Percent TGI is defined as the difference between the mean tumor volume of the test group and the control group. TGI values are calculated as follows:
Tᵢ is the mean tumor volume of a treatment group on a given day i, T₀ is the mean tumor volume of the treatment group on the day treatment started (day 0), Vᵢ is the mean tumor volume of the vehicle control group on the same day as Tᵢ, and V₀ is the mean tumor volume of the vehicle group on the initial day of treatment (day 0).
Calculation of body weight loss. Relative body weight (RBW) was calculated as follows:
BWᵢ is the mean body weight of one group on a given day i, BW0 is the mean body weight of the same group on the day treatment started (day 0).
Statistical analysis. For the evaluation of the statistical significance of antitumor efficacy, body weight change, and immune profiling, two-way ANOVA with multiple comparisons was performed using GraphPad Prism (Version 8.4).
All P values <0.05 were considered statistically significant.

[4] = test system: immune infiltrates of MCA205-mFAP tumors; test: Ex vivo immune profiling of tumors by flow cytometry; details: for CD8^+ (%, CD45^+) / CD86^+ on TAM (MFI) / CD127^+CD8^+ (%, CD8^+) / CD127 on CD127^+CD8^+ (MFI) / T cells (%, CD45^+) / TAM (%, CD45^+) / CD45^+ (%, total): mean ± SEM; for CD8^+ (%, CD45^+) / CD86^+ on TAM (MFI) / CD127^+CD8^+ (%, CD8^+) / CD127 on CD127^+CD8^+ (MFI) / T cells (%, CD45^+) / TAM (%, CD45^+) / CD4+ (%, CD45+) / CD25+CD4+ (%, CD4+) / CD25+CD8+ (%, CD8+) / CD25 on CD4+ (MFI) / CD25 on CD25+CD8+ (MFI) / CD86+ TAMs (%, TAMs) / CD127+CD4+ (%, CD4+) / CD127 on CD4+ (MFI) / CD45^+ (%, total): n = 8 per group; for CD45^+ (%, total): tumor flow cytometry;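 as to all read-outs here: subcutaneous MCA205-mFAP tumors in female C57BL/6 mice, treated from a mean tumor volume of 162 mm^3, excised on day 8 or 13 pi and profiled by flow cytometry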
Description: as §1
Tumors were dissected into small pieces, digested using a tumor dissociation enzyme mix (Miltenyi Biotec) at 37 °C for 40 min in a shaking water bath, processed through 70 μM cell strainers and counted (NucleoCounter NC-202, Chemotec). Cells (10 × 10^6) were Fc-blocked (2.4G2, BD Biosciences) and stained in FACS buffer (PBS with 0.5% BSA, 0.1% NaN3 and 2 mM EDTA) with Brilliant Stain Buffer Plus (BD Biosciences) for surface markers CD45 (30-F11), CD3 (145-2C11), CD4 (RM4-5), CD8 (53–6.7), CD25 (PC61), CD127 (SB/199), Ly6g (1A8), Ly6c (HK1.4), CD11b (M1/70), CD86 (GL1), CD314 (CX5), F4/80 (T45-2342), and eFlour 780 fixable viability dye (Thermo Fisher Scientific) for 30 min on ice. Anti-Ly6c was purchased from Biolegend, while remaining antibodies were from BD Biosciences. Samples were washed and acquired on the FACSymphony A3 and analyzed in FlowJo v10.8.1 (BD Biosciences, Supplementary Fig. S1).
PMN-MDSC CD45+ CD11b+ Ly6c+ Ly6g+
Mo-MDSC CD45+ CD11b+ Ly6c HighLy6g-
Gating strategy for immune profiling of MCA205-mFAP tumors by flow
cytometry. Representative bivariate density plots show gating strategy to identify the PMN-MDSC, Mo-
MDSC, TAM and T-cells in the MCA205-mFAP tumors (A). Marker sets used to identify each immune
cell type are listed (B).

[5] = test system: T cell infiltrates of MCA205-mFAP tumors; test: IHC quantification of CD8+ and CD4+ T cells in tumors
Description: Tumors were formalin-fixed and paraffin-embedded and processed into 4 μm tissue sections. Tumor sections were stained for FAP (EPR20021, Abcam), CD8 (D4W2Z, Cell Signaling), and CD4 (EPR19514, Abcam) on a Bond Rx autostainer (Leica Biosystems) with Bond Polymer Refine Detection (Leica Biosystems) according to the manufacturer's protocol. After staining, sections were dehydrated and film cover slipped using a TissueTek-Prisma and Coverslipper (Sakura). Whole slide scanning (40x) was performed on an Aperio AT2 (Leica Biosystems). Image analysis and quantification was performed on Aperio ImageScope v12.1 (Leica Biosystems) or QuPath v0.1.2 [18].
A tissue slide containing both intrinsic positive staining structures was included in every staining run. For FAP H-score assessment, the staining intensity was scored as 0, 1, 2, or 3 corresponding to the presence of negative, weak, intermediate, and strong brown staining, respectively. The average percentage positive was calculated for each intensity category and the following calculation was applied: H-score = (% of cells stained at intensity category 1 x 1) + (% of cells stained at intensity category 2 x 2) + (% of cells stained at intensity category 3 x 3). Image analysis scoring was previously validated against scoring performed by a pathologist. For CD4 and CD8 percentage assessment, QuPath positive cell detection function was used.

[6] = day 8 pi, differential expression versus vehicle, 770-plex panel

Structure (SMILES): CCCCCC(=O)N[C@H]1CSCc2cc(cc(CN3CCN(C(=O)CN4CCN(CC(=O)O)CCN(CC(=O)O)CCN(CC(=O)O)CC4)CC3)c2)CSC[C@@H](C(=O)N[C@@H](CC(=O)O)C(N)=O)NC(=O)[C@H](Cc2ccccc2)NC(=O)[C@H](CCC(N)=O)NC(=O)[C@H]([C@@H](C)O)NC(=O)[C@@H]2CCCN2C(=O)[C@@H]2CCCN2C1=O [^177Lu-FAP-2287, metal not drawn] (Hexanoyl-CPPTQFCD-NH2; linker 1-7 via X1; N-terminus and C-terminus assumed)
- tissue uptake at 3 h ([1]; blood pool surrogate (left ventricle of the heart), iv, 30 MBq, 3 h p.i., ROI over left ventricle of the heart, read-out: Blood Pool Surrogate %ID/g): 0.5 %ID/g
- tissue uptake at 24 h ([1]; blood pool surrogate (left ventricle of the heart), iv, 30 MBq, 24 h p.i., ROI over left ventricle of the heart, read-out: Blood Pool Surrogate %ID/g): 0.1 %ID/g
- tissue uptake at 48 h ([1]; blood pool surrogate (left ventricle of the heart), iv, 30 MBq, 48 h p.i., ROI over left ventricle of the heart, read-out: Blood Pool Surrogate %ID/g): 0.1 %ID/g
- tissue uptake at 72 h ([1]; blood pool surrogate (left ventricle of the heart), iv, 30 MBq, 72 h p.i., ROI over left ventricle of the heart, read-out: Blood Pool Surrogate %ID/g): 0.1 %ID/g
- tissue uptake at 3 h ([1]; kidney, 3 h p.i., 30 MBq iv, read-out: Kidney %ID/g): 2 ± 0.1 %ID/g
- tissue uptake at 24 h ([1]; kidney, 24 h p.i., 30 MBq iv, read-out: Kidney %ID/g): 1.1 ± 0.1 %ID/g
- tissue uptake at 48 h ([1]; kidney, 48 h p.i., 30 MBq iv, read-out: Kidney %ID/g): 0.9 %ID/g
- tissue uptake at 72 h ([1]; kidney, 72 h p.i., 30 MBq iv, read-out: Kidney %ID/g): 0.6 ± 0.1 %ID/g
- tissue uptake at 3 h ([1]; liver, 3 h p.i., 30 MBq iv, read-out: Liver %ID/g): 0.5 %ID/g
- tissue uptake at 24 h ([1]; liver, 24 h p.i., 30 MBq iv, read-out: Liver %ID/g): 0.3 %ID/g
- tissue uptake at 48 h ([1]; liver, 48 h p.i., 30 MBq iv, read-out: Liver %ID/g): 0.3 %ID/g
- tissue uptake at 72 h ([1]; liver, 72 h p.i., 30 MBq iv, read-out: Liver %ID/g): 0.2 %ID/g
- tissue uptake at 3 h ([1]; tumor, 3 h p.i., 30 MBq (1 nmol) iv, SPECT/CT, read-out: Tumor %ID/g): 8.2 ± 0.5 %ID/g
- tissue uptake at 24 h ([1]; tumor, 24 h p.i., 30 MBq (1 nmol) iv, SPECT/CT, read-out: Tumor %ID/g): 2.9 ± 0.2 %ID/g
- tissue uptake at 48 h ([1]; tumor, 48 h p.i., 30 MBq (1 nmol) iv, SPECT/CT, read-out: Tumor %ID/g): 1.6 ± 0.1 %ID/g
- tissue uptake at 72 h ([1]; tumor, 72 h p.i., 30 MBq (1 nmol) iv, SPECT/CT, read-out: Tumor %ID/g): 0.9 ± 0.1 %ID/g
- tissue to tissue ratio at 3 h ([1]; tumor/kidney, iv, 30 MBq, 3 h p.i., read-out: T/K ratio (tumor-to-kidney)): 4.1
- tissue to tissue ratio at 24 h ([1]; tumor/kidney, iv, 30 MBq, 24 h p.i., read-out: T/K ratio (tumor-to-kidney)): 2.6
- tissue to tissue ratio at 48 h ([1]; tumor/kidney, iv, 30 MBq, 48 h p.i., read-out: T/K ratio (tumor-to-kidney)): 1.8
- tissue to tissue ratio at 72 h ([1]; tumor/kidney, iv, 30 MBq, 72 h p.i., read-out: T/K ratio (tumor-to-kidney)): 1.5
- Tumor mass (MCA205-mFAP tumors): 746 mg
- number of gene transcripts decreased [2, 6]: 15 genes
- number of genes with significantly increased RNA levels [2, 6]: 28 genes
- number of day 8 differentially expressed genes still differentially expressed at day 13 pi ([2]; day 13 pi): 16 genes
- CCL5 RNA increase in tumors ([2]; fold versus vehicle, day not given): 1.95 fold
- TGI, Day 10 ([3]; day 10 pi, versus vehicle, n = 12 per group): 74%
- MTV, Day 10 ([3]; day 10 pi, 60 MBq 177Lu-FAP-2287 single iv dose and/or 10 mg/kg anti-PD-1 ip twice weekly, mean ± SEM, n = 12, vehicle 749.6 ± 91.2, SEM): 266.5 ± 53.2 mm^3
- RBW at nadir ([3]; relative body weight change at nadir (Day 2), mean ± SEM, n = 12, SEM): -1.1 ± 0.7%
- CD8^+ (%, CD45^+) ([4]; Day 8 pi, SEM): 16.9 ± 3.2%
- CD86^+ on TAM (MFI) ([4]; Day 8 pi, SEM): 3928 ± 124 MFI
- CD127^+CD8^+ (%, CD8^+) ([4]; Day 8 pi, SEM): 50.0 ± 5.3%
- CD127 on CD127^+CD8^+ (MFI) ([4]; Day 8 pi, SEM): 1011 ± 118 MFI
- T cells (%, CD45^+) ([4]; Day 8 pi, SEM): 22.9 ± 3.6%
- TAM (%, CD45^+) ([4]; Day 8 pi, SEM): 23.0 ± 1.1%
- CD4+ (%, CD45+) ([4]; Day 8 pi): 6.0 ± 0.6%
- CD25+CD4+ (%, CD4+) ([4]; Day 8 pi): 60.4 ± 1.3%
- CD25+CD8+ (%, CD8+) ([4]; Day 8 pi): 7.7 ± 1.1%
- CD25 on CD4+ (MFI) ([4]; Day 8 pi): 931 ± 117 MFI
- CD25 on CD25+CD8+ (MFI) ([4]; Day 8 pi): 84 ± 6 MFI
- CD86+ TAMs (%, TAMs) ([4]; Day 8 pi): 89.5 ± 1.7%
- CD127+CD4+ (%, CD4+) ([4]; Day 8 pi): 41.0 ± 1.8%
- CD127 on CD4+ (MFI) ([4]; Day 8 pi): 777 ± 43 MFI
- CD45^+ (%, total) ([4]; Day 8 pi, SEM): 23.6 ± 3.1%
- CD8^+ (%, CD45^+) ([4]; Day 13 pi, SEM): 11.9 ± 1.5%
- CD86^+ on TAM (MFI) ([4]; Day 13 pi, SEM): 4063 ± 143 MFI
- CD127^+CD8^+ (%, CD8^+) ([4]; Day 13 pi, SEM): 44.5 ± 3.7%
- CD127 on CD127^+CD8^+ (MFI) ([4]; Day 13 pi, SEM): 874 ± 86 MFI
- T cells (%, CD45^+) ([4]; Day 13 pi, SEM): 19.0 ± 1.5%
- TAM (%, CD45^+) ([4]; Day 13 pi, SEM): 39.4 ± 1.4%
- CD4+ (%, CD45+) ([4]; Day 13 pi): 7.2 ± 0.4%
- CD25+CD4+ (%, CD4+) ([4]; Day 13 pi): 64.5 ± 1.2%
- CD25+CD8+ (%, CD8+) ([4]; Day 13 pi): 5.3 ± 0.6%
- CD25 on CD4+ (MFI) ([4]; Day 13 pi): 1182 ± 80 MFI
- CD25 on CD25+CD8+ (MFI) ([4]; Day 13 pi): 70 ± 4 MFI
- CD86+ TAMs (%, TAMs) ([4]; Day 13 pi): 92.0 ± 1.2%
- CD127+CD4+ (%, CD4+) ([4]; Day 13 pi): 38.9 ± 2.2%
- CD127 on CD4+ (MFI) ([4]; Day 13 pi): 736 ± 51 MFI
- CD45^+ (%, total) ([4]; Day 13 pi, SEM): 21.6 ± 1.4%
- CD86+ Mo-MDSCs (%, Mo-MDSCs) ([4]; mouse, in vivo): 84.9 ± 1.2% and 82.2 ± 2.9%
- PMN-MDSCs (%, CD45+) ([4]; mouse, in vivo): 9.6 ± 3.9% and 10.0 ± 1.3%
- CD86^+ on Mo-MDSC (MFI) ([4]; mouse, in vivo, SEM): 3267 ± 80 MFI and 2939 ± 114 MFI
- Mo-MDSC (%, CD45^+) ([4]; mouse, in vivo, SEM): 34.9 ± 0.9% and 21.3 ± 1.3%
- CD8^+ T cells by IHC (% of total cells) ([5]; day 8 pi, vehicle 4.9%): 9.0%
- CD8^+ T cells by IHC (% of total cells) ([5]; day 13, vehicle 4.4%): 8.5%
